Data published in patent US20250275967A1, “FREEZE DRIED COMPOSITIONS” (Janssen Sciences Ireland Unlimited Company, priority 2022, published 2025).

Assay: rilpivirine particle size by wet dispersion laser diffraction
Assay type: physicochemical
Conditions: rilpivirine nanoparticles used for the aqueous compositions of Example 5
Experimental: The compositions were freeze dried and reconstituted with water to provide 9 mL of the reconstituted aqueous composition at time t=0, freeze dried and reconstituted with water to provide 9 mL of the reconstituted aqueous composition after being stored under conditions of 25° C./60% RH and 40° C./75% RH for 1 month, and freeze dried and reconstituted with water to provide 9 mL of the reconstituted aqueous composition after being stored under conditions of 25° C./60% RH for 6 months. The rilpivirine particle sizes were measured in both instances following the method below.
The volume-based particle size distribution of the rilpivirine suspensions was determined by means of wet dispersion laser diffraction, using a Malvern Mastersizer 3000 laser diffraction (Malvern Instruments) and Hydro MV wet dispersion module.

Dv10: about 96.5 nm | Dv50: about 224 nm | Dv90: about 509 nm
Compound: Cc1cc(/C=C/C#N)cc(C)c1Nc1ccnc(Nc2ccc(C#N)cc2)n1 [rilpivirine nanoparticles, 4-[[4-[[4-[(1E)-2-cyanoethenyl]-2,6-dimethylphenyl]amino]-2-pyrimidinyl]amino]-benzonitrile]
